Measurements as given in ChEMBL document CHEMBL5360587, “Differentiation-Promoting Effects of Okeaniamides A and B from an Okeania sp. Marine Cyanobacterium on Preadipocytes” (J Nat Prod, 2023).

Experiments:
[1] = system: 3T3-L1; assay: Cytotoxicity against mouse 3T3-L1 cells assessed as reduction in cell viability at 10 uM incubated for 3 days by MTT assay; type: toxicity, cell-based; conditions: 3t3-l1, 72 h, time 3 day
[2] = system: 3T3-L1; assay: Induction of adipogenesis in mouse 3T3-L1 cells assessed as increase in lipid droplets formation incubated with media replacement for every 3 days and measured at day 9 in presence of insulin by Oil Red O staining based analysis; type: functional, cell-based; conditions: dose 1-10 µM, time 9.0 day
[3] = system: 3T3-L1; assay: Induction of adipogenesis in mouse 3T3-L1 cells assessed as fold increase in OD value at 10 uM incubated with media replacement for every 3 days and measured for day 9 in presence of insulin by Oil Red O staining based analysis; type: functional; conditions: time 9 day

| Structure (SMILES) | Activity [1] | Activity [2] | fold change (FC) [3] |
| --- | --- | --- | --- |
| CCCCCC/C=C/C/C(C)=C/[C@@H](C/C=C/CCC(=O)N(C)[C@@H](COC)C(=O)N1CCC[C@H]1C(=O)CC)OC | Non-Toxic | Dose-Dependent Effect | 2.1 |
| CCCCCCCCC/C(C)=C/[C@@H](C/C=C/CCC(=O)N(C)[C@@H](COC)C(=O)N1CCC[C@H]1C(C)=O)OC | Non-Toxic | Dose-Dependent Effect | 2.3 |
